Measurements taken from patent US11708318B2, “Polymorphic forms of RAD1901-2HCL” (Radius Pharmaceuticals, Inc., priority 2017, dated 2023).

How the values were obtained:
[1] = Storage at elevated temperature/humidity, analysed by XRPD; assay type: physicochemical
Procedure: Samples 1 and 2 were characterized by XRPD at various conditions. XRPD patterns were collected for the samples at ambient condition as the samples were provided; at variable temperature (VT-XRPD); at variable humidity (VH-XRPD); after the samples were exposed to 40° C./75% RH for 1 week and 25° C./97% RH for 1 week, respectively; and after a GVS measurement wherein the samples were exposed to 0-90% RH. Samples 1 and 2 were also characterized by ^1H NMR, TGA, DSC, KF, IC, GVS (exposed to 0-90% RH), PLM, SEM, and HPLC (Table 5).

[2] = Gravimetric Vapour Sorption (GVS), with XRPD of the recovered sample; assay type: physicochemical
Procedure: Sorption isotherms were obtained using a SMS DVS Intrinsic moisture sorption analyzer, controlled by DVS Intrinsic Control software v1.0.1.2 (or v 1.0.1.3). The sample temperature was maintained at 25° C. by the instrument controls. The humidity was controlled by mixing streams of dry and wet nitrogen, with a total flow rate of 200 ml/min. The relative humidity was measured by a calibrated Rotronic probe (dynamic range of 1.0-100% RH), located near the sample. The weight change, (mass relaxation) of the sample as a function of % RH was constantly monitored by the microbalance (accuracy ±0.005 mg).
A sample (e.g., 20 mg) was placed in a tared mesh stainless steel basket under ambient conditions. The sample was loaded and unloaded at 40% RH and 25° C. (typical room conditions). A moisture sorption isotherm was performed as outlined below (2 scans giving 1 complete cycle). Standard isotherms were performed at 25° C. at 10% RH intervals over a 0-90% RH range. Data analysis was carried out using Microsoft Excel using DVS Analysis Suite v6.2 (or 6.1 or 6.0).
In a cycle of 2 scans, the first scan was performed with adsorption of 40-90% RH, followed by a second scan with desorption of 90-0% RH and adsorption of 0-40% RH, with intervals of 10% RH, at 25° C. with stability dm/dt of 0.002% ° C./min. The sorption time was 6 hr time out.
The sample was recovered after completion of the isotherm and re-analyzed by XRPD. Custom moisture sorption methods were also performed at 25° C. at fixed % RH intervals over a 0-95% RH range, with the purpose to fully understand the sorption/desorption behavior of the compound under elevated conditions.
To further explore the humidity behavior of Sample 1 (Form 1) upon exposure to high RH (>90%), custom GVS experiments were designed and carried out. Initially, the sample was treated by holding at 90 and then 95% RH for ˜12 hours to see if hydrate formation could be observed (HighRH method of Steps 1 and 2 of Table 2, FIGS. 6C-6D).
To test the stability of the hydrated state, GVS method HighRH_Desorp_3 was designed with a desorption step and subsequent adsorption (see Table 2 with steps 1-4, FIGS. 6E-6F).
Finally, to ensure complete conversion to the anhydrous and hydrated forms, a GVS experiment was designed to increase both the length of the desorption step at 0% RH, and the adsorption step at 95% RH, respectively (Table 3). Based on the weight stabilization observed in the kinetic plots for Sample 1 in HighRH and HighRH_Desorp_3 methods discussed above (FIGS. 6D and 6F), a holding time of 800 mins at 0% RH and 1600 mins at 95% RH were chosen. A double cycle was also recorded for this experiment to observe whether the sample would return to Form 1 or form a mixed anhydrous/hydrated species (see Table 3, FIGS. 6G-6H).

- XRPD after storage at 25° C./97% RH for 1 week ([1]; 25° C./97% RH, 1 week): Form 3
- Solid form on prolonged exposure to high RH (>90%) ([1]; high RH (>90%), e.g. for 7 days): converted to the hydrate Form 3
- GVS uptake 0-90% RH ([2]; 25° C., 0-90% RH): 1.8% wt.
- GVS uptake when held at 95% RH ([2]; HighRH method, held at 95% RH for ~12 hours): 5-6 % wt.
- XRPD post GVS (HighRH_DoubleCycle_2 method) ([2]; double cycle, 1600 mins at 95% RH, 800 mins at 0% RH): formation of the hydrate (Form 3)
- XRPD post GVS (HighRH_Desorp_3 method) ([2]; single cycle: to 95% RH, desorption to 0% RH, adsorption 0-40% RH): mixture of Form 1 and Form 3
SMILES: CCNCCc1ccc(CN(CC)c2cc(OC)ccc2[C@@H]2CCc3cc(O)ccc3C2)cc1.Cl.Cl [Sample 1]
- Solid form on exposure to high RH (>90%) by GVS ([2]; above 90% RH): irreversibly converted to a hydrate (Form 3)
- XRPD post GVS (HighRH method) ([2]; held at 90 and then 95% RH for ~12 hours): mixture of states or incomplete conversion
